Results: patent publication EP0366632A1, “Alternative energy substrates” (priority 1988, dated 1990)

Experiments:
[1] = Energy density; type: physicochemical
[2] = design: species or system rabbits; conditions: rabbit, in vivo
Method: Two rabbits weighing between 3.0-3.5 kg were infused intravenously (10 ml/kg body weight) with an emulsion containing 50 mg/ml of 4-methyl-3-oxo-pentanoic acid ethyl ester over a period of 5 minutes. Each rabbit received a dosage of 1.5-1.8 g over a 5 minute period. The emulsion was prepared aseptically, by emusifying sterile-filtered ester with a sterilized dispersion of egg-yolk phospholipids.
Three rabbits weighing 3.0-3.3 kg were infused intravenously (10 ml/kg body weight) with an emulsion containing 30 mg/ml of 4-methyl-3-oxo-pentanoic acid ethyl ester over a period of from 4 to 7 minutes. Each rabbit received a dosage of 0.9-1.05 g. The emulsion was prepared aseptically, by emulsifying sterile-filtered ester with a sterilized dispersion of egg-yolk phospholipids. […] The third rabbit remained normal during the whole of the infusion period. The two unconscious rabbits awakened about 2 minutes after completion of the infusion, and thereafter acted quite normally.

[3] = system: Escherichia coli ATCC 8739; test: Microorganism count in 2% and 0.2% ester emulsions (Example 14); type: cell-based; conditions: for number of microorganisms: after 1-5 minutes, +37°C, starting concentration about 10⁴
Method: The emulsions contained egg-yolk phospholipid 1,2% and sterile water, in addition to ester. The emulsions were prepared aseptically, by emulsifying sterile-filtered ester with a steriled dispersion of egg-yolk phospholipids.
Aliquots of these emulsions were diluted with phosphate buffer (0.01 M, pH=7.0) in the proportions of 1 and 10 and 1 and 100 in respective emulsions. Escherichia coli ATCC 8739 was added to the solutions. The solutions were then incubated at +37°C for 20 hours. The microorganism count was carried out after 1-5 minutes, 2 and 20 hours, in the manner described in microbiological literature. Parallel with the above tests, a check was carried out on phospholipide solution 1,2% and TSB (Tryptone soya broth) with additions of Escherichia coli ATCC 8739. The latter substrate was tested to ascertain whether or not the control microorganisms were viable. […] The starting concentration was about 10⁴. In the samples containing 4-methyl-3-oxo-pentanoic acid ethyl ester having the concentrations of 2% and 0.2%, the number of microorganisms present per ml after 1-5 minutes was 0 and 10⁴ respectively. After 2 hours, the microorganism count was 0 and 10 respectively, and after 20 hours 0 and 10 respectively. In the samples containing 5-methyl-3-oxo-hexanoic acid ethyl ester with the concentrations of 2% and 0.2%, the microorganism count per ml was 10 and 10 respectively after 1-5 minutes, 0 and 0 respectively after 2 hours, and 0 and 0 respectively after 20 hours.

[4] = system: VSV (vesicular stomatitis virus); type: cell-based; conditions: 0.1% in tissue cultures; A549, GMK and fibroblasts; Figure 2
[5] = Admixture of ester to distilled water and amino acid solution (Vamin N), 5 days at +5°C; type: physicochemical
Method: 6 g of egg-yolk phospholipids were dissolved in 50 g of 5-methyl-3-oxo-hexanoic acid ethyl ester and 4-methyl-3-oxo-pentanoic acid ethyl ester respectively, while applying and stirring the system. When clear solutions had been obtained, 34 g of absolute alcohol (about 99%) were added, corresponding to the least quantity required for the solutions to remain stable in cold conditions without precipitation of phospholipids. These solutions were autoclaved at +117°C for 20 minutes. Aliquots of these solutions were taken (0.2; 1.0; 3.0 and 5% calculated on ethyl ester) and added respectively to distilled water and to an amino acid solution with a concentration of 7.18% and 9.4 g nitrogen/l (Vamin^R N). Controls were run, in which a pure product of 5-methyl-3-oxo-hexanoic acid ethyl ester and 4-methyl-3-oxo-pen tanoic acidethyl ester respectively were added to distilled water and amino acid solution respectively. All samples were shaken for 10 seconds in a shaking apparatus of the type Whirlimixer^R. The samples were then permitted to stand for 5 calender days in cold conditions (+5°C) and were read-off daily under a daylight lamp, observations being made as to the acceptable quality of the resultant emulsions (visually) or to ascertain the presence or absence of oil droplets on the surface of the emulsions, or separation thereof. […]

Row | Structure (SMILES) | energy density [1] | time after completion of the infusion until awakening [2] | time after completion of the infusion until consciousness regained [2] | microorganism count ([3]; 0.2%, after 2 hours) | microorganism count ([3]; 0.2%, after 20 hours) | number of microorganisms ([3]; 2%) | microorganism count ([3]; 2%, after 2 hours) | microorganism count ([3]; 2%, after 20 hours) | suppression of replication of VSV [4] | concentration to which the ester can be mixed (accepted samples) ([5]; free pure ester in amino acid solution (Vamin N)) | concentration to which the ester can be mixed (accepted samples) ([5]; free pure ester in distilled water) | number of microorganisms ([3]; 0.2%)
1 | CCOC(=O)CC(=O)C(C)C [4-methyl-3-oxo-pentanoic acid ethyl ester] | 27.94 kJ/g | about 2 minutes | about 2 minutes | 10 per ml | 10 per ml | 0 per ml | 0 per ml | 0 per ml | – | – | – | –
2 | CCOC(=O)CC(=O)CC(C)C [5-methyl-3-oxo-hexanoic acid ethyl ester] | 29.24 kJ/g | – | – | 0 per ml | 0 per ml | 10 per ml | 0 per ml | 0 per ml | replication can be inhibited | 0.2% | 0.2% | 10 per ml
